Source: article PMC6073568, “Efficient Lead Finding, Activity Enhancement and Preliminary Selectivity Control of Nuclear Receptor Ligands Bearing a Phenanthridinone Skeleton” (International Journal of Molecular Sciences, 2018)

Tests used:
[1] = target: T1, AR (Homo sapiens, UniProt P10275); experiment: AR reporter gene assay in HEK293; type: cell-based; conditions: reporter gene assay, HEK293; agonist dihydrotestosterone 0.3 nM; read-out: AR antagonistic activity (IC50), AR reporter gene
T1 sequence (P10275 1-920): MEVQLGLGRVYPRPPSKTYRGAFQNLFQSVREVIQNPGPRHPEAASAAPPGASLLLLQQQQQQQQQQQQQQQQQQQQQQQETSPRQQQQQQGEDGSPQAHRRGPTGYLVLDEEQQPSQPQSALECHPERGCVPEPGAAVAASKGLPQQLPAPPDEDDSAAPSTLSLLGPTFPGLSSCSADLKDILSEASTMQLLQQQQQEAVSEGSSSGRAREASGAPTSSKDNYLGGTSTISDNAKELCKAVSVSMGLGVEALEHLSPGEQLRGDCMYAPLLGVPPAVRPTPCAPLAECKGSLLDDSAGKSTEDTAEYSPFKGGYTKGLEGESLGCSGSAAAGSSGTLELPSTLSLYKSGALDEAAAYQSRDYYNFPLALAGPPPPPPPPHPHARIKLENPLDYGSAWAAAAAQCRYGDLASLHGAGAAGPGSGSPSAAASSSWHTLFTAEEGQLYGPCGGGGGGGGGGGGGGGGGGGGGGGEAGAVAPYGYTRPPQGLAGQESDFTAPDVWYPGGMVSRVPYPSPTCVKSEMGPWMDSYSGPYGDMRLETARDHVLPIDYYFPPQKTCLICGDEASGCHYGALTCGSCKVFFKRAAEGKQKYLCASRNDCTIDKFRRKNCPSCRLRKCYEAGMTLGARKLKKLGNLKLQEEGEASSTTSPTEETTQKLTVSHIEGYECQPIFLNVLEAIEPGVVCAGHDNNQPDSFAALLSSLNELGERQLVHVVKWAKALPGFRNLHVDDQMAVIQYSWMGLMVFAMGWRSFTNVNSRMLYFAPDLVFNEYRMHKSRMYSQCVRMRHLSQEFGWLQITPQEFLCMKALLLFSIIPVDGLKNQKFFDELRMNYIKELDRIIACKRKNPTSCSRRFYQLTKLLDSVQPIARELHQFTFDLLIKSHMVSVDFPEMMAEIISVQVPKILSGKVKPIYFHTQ

[2] = target: T2, RORα (Homo sapiens, UniProt P35398); conditions: reporter gene assay, HEK293; read-out: RORα inverse agonistic activity (IC50); cited from earlier work
T2 construct: expressed in transfected cells; host or cells: HEK293
T2 sequence (P35398 1-523): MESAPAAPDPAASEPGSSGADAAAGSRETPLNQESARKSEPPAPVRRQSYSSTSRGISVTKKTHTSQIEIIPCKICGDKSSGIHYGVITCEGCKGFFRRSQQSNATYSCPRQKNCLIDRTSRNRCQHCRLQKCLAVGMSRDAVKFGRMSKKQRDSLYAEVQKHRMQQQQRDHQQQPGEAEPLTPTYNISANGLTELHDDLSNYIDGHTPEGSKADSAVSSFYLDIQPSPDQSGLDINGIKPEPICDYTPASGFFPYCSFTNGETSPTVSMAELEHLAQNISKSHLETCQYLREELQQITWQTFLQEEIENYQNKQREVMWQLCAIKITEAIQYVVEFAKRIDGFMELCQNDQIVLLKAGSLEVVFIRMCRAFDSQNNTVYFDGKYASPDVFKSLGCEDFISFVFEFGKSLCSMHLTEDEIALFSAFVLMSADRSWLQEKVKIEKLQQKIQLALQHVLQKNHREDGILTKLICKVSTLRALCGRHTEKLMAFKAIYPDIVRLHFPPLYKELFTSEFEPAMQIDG

[3] = target: T3, RORβ (Homo sapiens, UniProt Q92753); conditions: reporter gene assay, HEK293; read-out: RORβ inverse agonistic activity (IC50); cited from earlier work
T3 construct: expressed in transfected cells; host or cells: HEK293
T3 sequence (Q92753 1-459 isoform Q92753-1): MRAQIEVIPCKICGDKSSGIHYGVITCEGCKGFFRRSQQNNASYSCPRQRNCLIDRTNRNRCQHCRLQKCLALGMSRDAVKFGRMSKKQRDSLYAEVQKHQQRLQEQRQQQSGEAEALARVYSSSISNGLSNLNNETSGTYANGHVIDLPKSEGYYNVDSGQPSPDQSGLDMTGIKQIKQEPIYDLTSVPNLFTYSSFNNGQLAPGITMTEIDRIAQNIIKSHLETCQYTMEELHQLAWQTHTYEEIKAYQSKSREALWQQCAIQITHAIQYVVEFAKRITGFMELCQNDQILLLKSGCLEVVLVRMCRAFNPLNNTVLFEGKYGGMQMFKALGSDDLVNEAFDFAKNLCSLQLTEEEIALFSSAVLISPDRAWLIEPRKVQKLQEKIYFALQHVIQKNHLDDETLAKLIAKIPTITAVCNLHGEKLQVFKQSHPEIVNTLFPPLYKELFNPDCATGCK

[4] = target: T4, RORγ (Homo sapiens, UniProt P51449); conditions: reporter gene assay, HEK293; read-out: RORγ inverse agonistic activity (IC50); cited from earlier work
T4 construct: expressed in transfected cells; host or cells: HEK293
T4 sequence (P51449 1-518): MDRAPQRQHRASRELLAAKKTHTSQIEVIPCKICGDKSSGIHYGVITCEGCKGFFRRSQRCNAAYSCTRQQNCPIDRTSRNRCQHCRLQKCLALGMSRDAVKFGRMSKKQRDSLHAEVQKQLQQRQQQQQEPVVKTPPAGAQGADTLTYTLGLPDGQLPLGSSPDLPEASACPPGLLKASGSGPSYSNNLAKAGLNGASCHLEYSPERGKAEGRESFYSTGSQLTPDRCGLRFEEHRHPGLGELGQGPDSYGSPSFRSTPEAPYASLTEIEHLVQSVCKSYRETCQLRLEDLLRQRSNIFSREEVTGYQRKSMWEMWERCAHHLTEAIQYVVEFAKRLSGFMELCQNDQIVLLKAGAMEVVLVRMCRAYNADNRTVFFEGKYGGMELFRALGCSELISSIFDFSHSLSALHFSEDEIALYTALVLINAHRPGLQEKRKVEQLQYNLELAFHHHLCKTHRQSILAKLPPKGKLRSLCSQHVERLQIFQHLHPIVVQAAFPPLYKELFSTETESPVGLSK

[5] = target: T5, LXRα (Homo sapiens, UniProt Q13133); experiment: LXRα reporter gene assay in HEK293; type: cell-based; conditions: read-out: LXRα antagonistic activity (IC50)
T5 construct: CMX-GAL4N-hLXRα-LBD; expressed in transfected cells; host or cells: HEK293
T5 sequence (Q13133 209-447 limits assumed): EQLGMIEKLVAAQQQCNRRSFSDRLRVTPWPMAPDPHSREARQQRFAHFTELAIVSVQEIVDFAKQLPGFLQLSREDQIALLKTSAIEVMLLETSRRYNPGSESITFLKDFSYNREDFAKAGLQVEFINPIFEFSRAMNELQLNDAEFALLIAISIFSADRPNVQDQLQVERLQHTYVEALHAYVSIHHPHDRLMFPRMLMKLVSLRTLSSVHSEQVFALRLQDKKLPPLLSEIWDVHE

[6] = target: T6, LXRβ (Homo sapiens, UniProt P55055); experiment: LXRβ reporter gene assay in HEK293; type: cell-based; conditions: read-out: LXRβ antagonistic activity (IC50)
T6 construct: CMX-GAL4N-hLXRβ-LBD; expressed in transfected cells; host or cells: HEK293
T6 sequence (P55055 222-460 limits assumed): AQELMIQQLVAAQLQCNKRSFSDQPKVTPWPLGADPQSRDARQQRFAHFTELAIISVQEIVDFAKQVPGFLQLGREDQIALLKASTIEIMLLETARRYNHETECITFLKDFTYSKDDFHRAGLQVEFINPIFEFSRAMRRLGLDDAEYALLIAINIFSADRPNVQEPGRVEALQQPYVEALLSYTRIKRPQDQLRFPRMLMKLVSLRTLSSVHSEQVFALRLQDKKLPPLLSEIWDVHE

[7] = target: T7, GR (Homo sapiens, UniProt P04150); experiment: GR reporter gene assay in HEK293; type: cell-based; conditions: reporter gene assay, HEK293; agonist dexamethasone 1 nM; read-out: GR antagonistic activity (IC50)
T7 construct: expressed in transfected cells; host or cells: HEK293
T7 sequence (P04150 1-777): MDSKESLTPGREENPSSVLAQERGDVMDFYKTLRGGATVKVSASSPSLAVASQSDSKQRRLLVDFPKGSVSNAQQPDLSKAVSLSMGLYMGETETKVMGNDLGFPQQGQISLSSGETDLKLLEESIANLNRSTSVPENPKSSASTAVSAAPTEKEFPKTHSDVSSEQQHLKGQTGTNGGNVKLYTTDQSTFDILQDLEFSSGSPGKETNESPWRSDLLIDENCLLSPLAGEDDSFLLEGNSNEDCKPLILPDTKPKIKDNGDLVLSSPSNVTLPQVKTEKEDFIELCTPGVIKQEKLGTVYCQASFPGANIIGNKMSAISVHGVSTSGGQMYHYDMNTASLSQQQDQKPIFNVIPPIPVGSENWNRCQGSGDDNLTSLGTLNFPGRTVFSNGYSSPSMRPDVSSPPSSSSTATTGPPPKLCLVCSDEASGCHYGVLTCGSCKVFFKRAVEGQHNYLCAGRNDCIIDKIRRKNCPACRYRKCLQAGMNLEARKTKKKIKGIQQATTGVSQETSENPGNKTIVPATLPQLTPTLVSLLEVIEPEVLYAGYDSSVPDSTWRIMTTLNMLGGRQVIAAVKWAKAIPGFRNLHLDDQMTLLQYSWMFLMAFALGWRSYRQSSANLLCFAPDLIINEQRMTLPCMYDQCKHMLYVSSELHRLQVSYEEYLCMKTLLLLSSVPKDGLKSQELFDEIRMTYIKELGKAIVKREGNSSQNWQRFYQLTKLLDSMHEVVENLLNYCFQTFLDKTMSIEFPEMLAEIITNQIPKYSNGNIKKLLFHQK

[8] = target: T8, PR (Homo sapiens, UniProt P06401); conditions: alkaline phosphatase, T47D cells, progesterone 1 nM; read-out: PR antagonistic activity (IC50); cited from earlier work
T8 sequence (P06401 1-933): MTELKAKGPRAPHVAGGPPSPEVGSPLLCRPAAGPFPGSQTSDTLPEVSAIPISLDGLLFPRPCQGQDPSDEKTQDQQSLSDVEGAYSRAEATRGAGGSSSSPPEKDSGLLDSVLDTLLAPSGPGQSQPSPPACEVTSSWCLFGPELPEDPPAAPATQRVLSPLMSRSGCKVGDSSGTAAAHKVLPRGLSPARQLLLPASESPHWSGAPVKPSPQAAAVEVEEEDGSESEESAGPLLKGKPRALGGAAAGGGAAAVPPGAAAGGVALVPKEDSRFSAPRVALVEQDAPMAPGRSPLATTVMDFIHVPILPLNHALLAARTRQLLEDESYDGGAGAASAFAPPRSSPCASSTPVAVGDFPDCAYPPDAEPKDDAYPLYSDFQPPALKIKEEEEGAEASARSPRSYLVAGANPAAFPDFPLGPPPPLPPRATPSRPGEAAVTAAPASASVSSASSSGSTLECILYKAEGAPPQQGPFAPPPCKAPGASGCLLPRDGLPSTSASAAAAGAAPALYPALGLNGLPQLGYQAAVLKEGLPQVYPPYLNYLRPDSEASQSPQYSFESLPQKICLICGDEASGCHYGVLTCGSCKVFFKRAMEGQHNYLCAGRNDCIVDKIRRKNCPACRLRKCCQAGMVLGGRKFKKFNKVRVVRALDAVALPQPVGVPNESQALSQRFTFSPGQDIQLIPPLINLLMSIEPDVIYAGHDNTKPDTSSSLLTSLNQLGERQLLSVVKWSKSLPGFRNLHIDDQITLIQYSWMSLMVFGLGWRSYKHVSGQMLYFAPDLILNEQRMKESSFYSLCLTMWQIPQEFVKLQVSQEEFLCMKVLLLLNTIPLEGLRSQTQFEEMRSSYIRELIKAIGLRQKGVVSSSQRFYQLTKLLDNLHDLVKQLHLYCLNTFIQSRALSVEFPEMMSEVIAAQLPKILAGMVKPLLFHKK

IC50 [1]	IC50 [5]	IC50 [6]	IC50 [7]	Structure (SMILES)	IC50 [2]	IC50 [3]	IC50 [4]	IC50 [8]
5.2 µM	9.2 µM	0.88 µM	10 µM	CCCCn1c(=O)c2ccc(Cl)cc2c2cc(C(O)(C(F)(F)F)C(F)(F)F)ccc21 [Compound 2]				4.3 µM
> 20 µM	7.1 µM	4.4 ± 0.8 µM	> 20 µM	CCCCn1c(=O)c2ccc(C(F)(F)F)cc2c2cc(C(O)(C(F)(F)F)C(F)(F)F)ccc21 [Compound 37]				4.2 µM
> 3 µM	7 µM		> 20 µM	CCCCn1c(=O)c2ccc(O)cc2c2cc(C(O)(C(F)(F)F)C(F)(F)F)ccc21 [Compound 38]				5.1 µM
1.7 µM		> 20 µM		Cc1cc(C(O)(C(F)(F)F)C(F)(F)F)cc2c1[nH]c(=O)c1cc(F)ccc12 [Compound 44]	> 20 µM	> 20 µM	> 20 µM	

The next lines start with the compound.

Structure (SMILES)	IC50 [1]	IC50 [5]	IC50 [6]	IC50 [7]	IC50 [2]	IC50 [3]	IC50 [4]	IC50 [8]
Cc1cc(C(O)(C(F)(F)F)C(F)(F)F)cc2c3ccc(F)cc3c(=O)n(C)c12 [Compound 3]	0.3 µM				> 20 µM	> 20 µM	> 20 µM	
Cc1cc(C(O)(C(F)(F)F)C(F)(F)F)cc2c1[nH]c(=O)c1ccccc12 [Compound 40]					> 20 µM	> 20 µM	> 20 µM	
CCCn1c(=O)c2ccccc2c2cc(C(O)(C(F)(F)F)C(F)(F)F)ccc21 [Compound 15]	5.6 µM	12 µM	6.9 µM	17 µM	11 µM			
CCCCn1c(=O)c2ccccc2c2cc(C)ccc21 [Compound 8]	11 µM	17 µM	16 µM	> 20 µM	18 µM		17 µM	
CCCCCCn1c(=O)c2ccccc2c2cc(C(O)(C(F)(F)F)C(F)(F)F)ccc21 [Compound 16]	4 µM	16 µM	10 µM	> 20 µM				
CCCCn1c(=O)c2ccccc2c2cc(CC)ccc21 [Compound 9]	19 µM	17 µM	16 µM	19 µM				
